For data set [1], the system named is rrsA. As to the kind of experiment: Shigella gene expression qRT-PCR, internal control rrsA. The data set is classed as cell-based, S. flexneri. Particulars: for Average ΔΔCt / Ct / RQ (2^−ΔΔCt) / ΔΔCt^1 (normalized to gapA): rrsA, example data. On the procedure: Real-time quantitative reverse transcription PCR (qRT-PCR) was performed to test the effects of SE-1 on the expression of the VirF regulated genes virB, icsA, icsB and ipaB. The gapA and rrsA transcripts were used as internal controls. These are constitutively expressed Shigella genes commonly used to normalize mRNA levels. S. flexneri strain SME4331, which carries a null mutation in ipgD (ipgD), was grown at 30° C. overnight in TSB with ampicillin, diluted into the same medium to an OD600 of ˜0.1, and 1 ml aliquots further grown at 30° C. (DMSO only) or at 37° C. (SE-1 at 20 or 40 μM, or DMSO only, all 0.3% DMSO). Cells were grown to an OD600 of 1.0 (˜2.5 h) and RNA was isolated using an RNeasy MiniElute Cleanup Kit (Qiagen, Germantown, Md.), with DNA contamination eliminated using a Turbo DNase Kit (Ambion, Austin, Tex.). Complementary DNA (cDNA) was synthesized by random priming using a cDNA Reverse Transcription Kit (Applied Biosystems, Foster City, Calif.). Primers were tested for PCR specificity using genomic DNA template to ensure a single amplicon of the expected size for each primer pair, and validated using 5-fold dilutions of cDNA (2000 to 0.0256 ng) to ensure a linear plot of cycle threshold (Ct) versus cDNA concentration. Validated primer sets were used to test mRNA profiles in reactions that contained 10 ng of cDNA, 10 μl of SYBR green master mix (Applied Biosystems), specific primers (0.5 μM each) and water to a final volume of 20 μl, using a Step One Plus Real-Time PCR System (Applied Biosystems). The data was analyzed using the 2^−ΔΔCt method, and also by Applied Biosystems real-time analysis software. […] In brief, ΔΔCt values [ΔΔCt=(Ct,Target−Ct,Internal Control)SE-1−(Ct,Target−Ct,Internal Control)no SE-1] were separately obtained for each sample relative to two internal controls, gapA and rrsA. The ΔΔCt values relative to the two internal controls for each sample were averaged and then used to calculate the relative expression levels (2^−ΔΔCt). As a control, we also normalized each internal control to the other internal control. Control reactions used templates generated without reverse transcriptase to ensure low genomic DNA contamination. To ensure that products were not likely to be due to primer dimer artifacts, additional control samples were performed in which reaction mixtures contained primers alone (no template).

Data set [2] has as its system Shigella. In words: Shigella growth. Format: cell-based, S. flexneri.
Data set [3] concerns the target RhaS (Escherichia coli, UniProt P09377). In words: In vivo dose-response, RhaS-activated rhaB-lacZ reporter fusion (β-galactosidase). Format: cell-based, E. coli. The note with it: full-length RhaS. The text has this:
(§1) For dose-response studies, a rhaB-lacZ reporter strain was designed that allowed IPTG induction of RhaS or RhaS(163-278) expression from pHG165 (and thus rhaB-lacZ expression). The strain was constructed by introducing malP::lacIq into SME3000 via phage P1vir-mediated generalized transduction. First, SME3000 was transduced with Δcrp-3 zhc-511::Tn10 from SME1403, selecting for tetracycline resistance and screening for sorbitol deficiency (indicating Δcrp) using MacConkey sorbitol. SME3000 Acrp-3 zhc-511::Tn10 was transduced with crp^+ malP::lacI^q from SG22166, selecting for growth on minimal sorbitol and screening for maltose deficiency (indicating malP::lacI^q) using MacConkey maltose. Finally, SME3000 malP::lacI^q zhc-511::Tn10 was transduced with recA::cat from SME1048 by selecting for chloramphenicol resistance, to make strain SME3632.
The top hit identified in the screen was 1-ethyl-4-(nitromethyl)-3-quinolin-2-yl-4H-quinoline, Compound 2. The closely related compound, Compound 1,1-butyl-4-(nitromethyl)-3-quinolin-2-yl-4H-quinoline, was obtained from eMolecules, Inc. (Solana Beach, Calif.; catalog #3761-0013) or Princeton BioMolecular Research (Princeton, N.J.; catalog #OSSL—051168), with the Princeton named used here. […] Lysis/ONPG buffer (50 μL, as in Primary Screen) was added to each well and the plate was immediately placed into a PowerWave XS plate reader (BioTek Instruments, Inc., Winooski, Vt.), set to read the OD420 of each well every 15 min for 4 hr. […] Due to differences in kinetics of lacZ reporter expression, the rhaB-lacZ strains were analyzed at 4 hours and the hts-lacZ strain was analyzed at 1 hr. Percent activity was calculated for each condition as described above, using the single time point with appropriate OD420 levels for each strain. […] IC50 and maximal inhibition values were calculated using the XLfit add-in for Microsoft Excel (ID Business Solutions, Guildford, UK), and graphs were drawn using Prism (GraphPad, La Jolla, Calif.).

The target of data set [4] is T1, RhaS(163-278) (RhaS DNA-binding domain) (Escherichia coli, UniProt P09377).
T1 construct: expressed in transfected cells; host or cells: E. coli SME3635 (rhaB-lacZ, pHG165 expressing RhaS(163-278))
In words: In vivo dose-response, rhaB-lacZ fusion activated by RhaS(163-278) (RhaS-DBD). Format: cell-based, E. coli.
From the text: as §1, with “Finally, SME3000 malP::lacI^q zhc-511::Tn10 was transduced with recA::cat from SME1048 by selecting for chloramphenicol resistance, to make strain SME3632.” left out
The top hit identified in the screen was 1-ethyl-4-(nitromethyl)-3-quinolin-2-yl-4H-quinoline, Compound 2. […] Lysis/ONPG buffer (50 μL, as in Primary Screen) was added to each well and the plate was immediately placed into a PowerWave XS plate reader (BioTek Instruments, Inc., Winooski, Vt.), set to read the OD420 of each well every 15 min for 4 hr. […] Due to differences in kinetics of lacZ reporter expression, the rhaB-lacZ strains were analyzed at 4 hours and the hts-lacZ strain was analyzed at 1 hr. Percent activity was calculated for each condition as described above, using the single time point with appropriate OD420 levels for each strain. […]

The target of data set [5] is Rns (Escherichia coli, UniProt P16114). In words: In vivo activation by Rns (promoter-lacZ fusion). The data set is classed as cell-based, Enterotoxigenic E. coli. The note with it: compared with full-length RhaS. The text has this:
Expression of promoter-lacZ fusions regulated by the indicated activators, or the control Lad regulated fusion at the indicated concentrations of Compound 1. Average of three independent experiments, with two replicates in each experiment.
The compounds of the invention can be used for inhibition of virulence in vivo and in vitro activation by Rns and VirF.

Results on 1 compound are retold here after patent US20140088144A1, “INHIBITING MICROBIAL INFECTIONS” (THE UNIVERSITY OF KANSAS, priority 2012, published 2014).

Molecules are shown by their SMILES. pIC50: −log10 of the molar value.

T1 sequence (P09377 163-278): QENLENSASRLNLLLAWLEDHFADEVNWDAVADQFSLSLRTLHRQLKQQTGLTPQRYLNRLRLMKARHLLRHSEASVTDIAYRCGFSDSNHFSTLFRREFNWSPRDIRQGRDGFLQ
Sequence of RhaS (P09377 whole entry, the tested form may be a part): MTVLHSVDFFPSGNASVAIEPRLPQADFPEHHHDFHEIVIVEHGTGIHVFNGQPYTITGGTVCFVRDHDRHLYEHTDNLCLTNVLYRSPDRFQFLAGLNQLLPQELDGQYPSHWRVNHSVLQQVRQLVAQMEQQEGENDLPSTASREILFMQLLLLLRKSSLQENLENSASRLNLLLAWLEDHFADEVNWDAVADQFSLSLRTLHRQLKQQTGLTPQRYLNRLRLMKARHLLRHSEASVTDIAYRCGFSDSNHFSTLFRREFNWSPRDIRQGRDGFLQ
Sequence of Rns (P16114 whole entry, the tested form may be a part): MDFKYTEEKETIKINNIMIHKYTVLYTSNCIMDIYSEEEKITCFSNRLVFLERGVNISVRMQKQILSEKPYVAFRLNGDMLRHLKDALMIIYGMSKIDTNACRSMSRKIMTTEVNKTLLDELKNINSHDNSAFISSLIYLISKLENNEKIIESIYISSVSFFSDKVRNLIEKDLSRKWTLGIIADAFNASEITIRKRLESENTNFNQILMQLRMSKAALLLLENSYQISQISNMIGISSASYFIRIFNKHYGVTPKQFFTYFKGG

For the compound `CCCCN1C=C(c2ccc3ccccc3n2)C(C[N+](=O)[O-])c2ccccc21` (centres unmarked) [Compound 1, 1-butyl-4-(nitromethyl)-3-quinolin-2-yl-4H-quinoline], the “expression of control gene rrsA” value in data set [1] (40 μM SE-1, normalized to gapA) is given as “no decrease”. In data set [1] (SE-1 20 μM), the “Average ΔΔCt” value is recorded as −1.0, the Ct amounted to 18.55, the “RQ (2^−ΔΔCt)” value is recorded as 2 and the “ΔΔCt^1 (normalized to gapA)” value is on record as −1.0. Moreover, in data set [1] (SE-1 40 μM), the “Average ΔΔCt” value was found to be 0.69, the Ct is 18.29, the “RQ (2^−ΔΔCt)” value is recorded as 1.62 and the “ΔΔCt^1 (normalized to gapA)” value is on record as 0.69. In addition, the “growth of S. flexneri samples” value in data set [2] (80 μM SE-1, virB-lacZ strain) is “exhibited growth defects”. Besides, the “decrease in the Shigella growth rate” value in data set [2] (concentrations up to 40 μM, SME4331) is “no detectable decrease”. The Shigella growth rate entry in data set [2] (strain M90T, invasion study with human epithelial cells) is “not the Shigella growth rate”. For the same compound, the “inhibition of the RhaS-activated fusion” value in data set [3] (rhaB-lacZ) was “fully inhibit expression”. In data set [3] (rhaB-lacZ (SME3634), read-out: IC50, expression of the RhaS-activated fusion), the pIC50 – broadly, −log10 of the IC50, conventionally taken in molar units – was ~4.52. Further, the “inhibition of RhaS(163-278)-activated expression” value in data set [4] (RhaS-DBD) is reported as “fully inhibit expression”. For the same compound, in data set [4] (RhaS-DBD (SME3635), read-out: IC50, rhaB-lacZ activation by RhaS(163-278)), the negative-log IC50 (pIC50) is ~5.00. Moreover, the “inhibition of in vivo activation by Rns” value in data set [5] is on record as “similar, if not greater, extent than full-length RhaS”.
